# Measured values from PubChem BioAssay (NCI).
#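 Step 1: Grow cells in 96-well plates. Step 2: Expose to compound for 48 hours at 5 concentrations. Step 3: Interpolate endpoints linearly; if unreached, use highest concentration. TGI: total growth inhibition.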
# Experiments:
# Test in all cases: inhibition of tumour cell growth, NCI panel, 48 h
# 786-0 renal = system: 786-0 renal
# A498 renal = system: A498 renal
# A549 NSCLC = system: A549 NSCLC
# BT-549 breast = system: BT-549 breast
# CAKI-1 renal = system: CAKI-1 renal
# CCRF-CEM leukemia = system: CCRF-CEM leukemia
# COLO 205 colon = system: COLO 205 colon
# DU-145 prostate = system: DU-145 prostate
# HCC-2998 colon = system: HCC-2998 colon
# HCT-15 colon = system: HCT-15 colon
# HL-60(TB) leukemia = system: HL-60(TB) leukemia
# HOP-62 NSCLC = system: HOP-62 NSCLC
# HOP-92 NSCLC = system: HOP-92 NSCLC
# HS 578T breast = system: HS 578T breast
# IGROV1 ovarian = system: IGROV1 ovarian
# KM12 colon = system: KM12 colon
# M14 melanoma = system: M14 melanoma
# MALME-3M melanoma = system: MALME-3M melanoma
# MCF7 breast = system: MCF7 breast
# MDA-MB-231 breast = system: MDA-MB-231 breast
# MDA-MB-435 = system: MDA-MB-435
# MDA-N = system: MDA-N
# NCI-H226 lung = system: NCI-H226 lung
# NCI-H23 lung = system: NCI-H23 lung
# NCI-H460 lung = system: NCI-H460 lung
# NCI-H522 lung = system: NCI-H522 lung
# NCI/ADR-RES ovarian = system: NCI/ADR-RES ovarian
# OVCAR-3 ovarian = system: OVCAR-3 ovarian
# OVCAR-4 ovarian = system: OVCAR-4 ovarian
# OVCAR-5 ovarian = system: OVCAR-5 ovarian
# OVCAR-8 ovarian = system: OVCAR-8 ovarian
# PC-3 prostate = system: PC-3 prostate
# RPMI-8226 leukemia = system: RPMI-8226 leukemia
# RXF 393 renal = system: RXF 393 renal
# SF-295 CNS = system: SF-295 CNS
# SF-539 CNS = system: SF-539 CNS
# SK-MEL-2 melanoma = system: SK-MEL-2 melanoma
# SK-MEL-28 melanoma = system: SK-MEL-28 melanoma
# SK-MEL-5 melanoma = system: SK-MEL-5 melanoma
# SK-OV-3 ovarian = system: SK-OV-3 ovarian
# SN12C renal = system: SN12C renal
# SNB-19 CNS = system: SNB-19 CNS
# SNB-75 CNS = system: SNB-75 CNS
# SR leukemia = system: SR leukemia
# T-47D breast = system: T-47D breast
# U251 CNS = system: U251 CNS
# UO-31 renal = system: UO-31 renal
# ACHN renal = system: ACHN renal
# EKVX NSCLC = system: EKVX NSCLC
# HCT-116 colon = system: HCT-116 colon
# HT29 colon = system: HT29 colon
# K-562 leukemia = system: K-562 leukemia
# LOX IMVI melanoma = system: LOX IMVI melanoma
# MOLT-4 leukemia = system: MOLT-4 leukemia
# SF-268 CNS = system: SF-268 CNS
# SW-620 colon = system: SW-620 colon
# TK-10 renal = system: TK-10 renal
# UACC-257 melanoma = system: UACC-257 melanoma
# UACC-62 melanoma = system: UACC-62 melanoma
smiles,measurement,setting,value
Cn1c(CCC2(C)Cc3ccccc3C(=O)O2)cc2ccccc2c1=O (stereo not given),TGI,786-0 renal,> 100 µM
same,TGI,A498 renal,> 100 µM
same,TGI,A549 NSCLC,> 100 µM
same,TGI,BT-549 breast,44 µM
same,TGI,CAKI-1 renal,51.6 µM
same,TGI,CCRF-CEM leukemia,27 µM
same,TGI,COLO 205 colon,84 µM
same,TGI,DU-145 prostate,59.8 µM
same,TGI,HCC-2998 colon,> 100 µM
same,TGI,HCT-15 colon,> 100 µM
same,TGI,HL-60(TB) leukemia,> 100 µM
same,TGI,HOP-62 NSCLC,48 µM
same,TGI,HOP-92 NSCLC,> 100 µM
same,TGI,HS 578T breast,> 100 µM
same,TGI,IGROV1 ovarian,86.6 µM
same,TGI,KM12 colon,23.3 µM
same,TGI,M14 melanoma,33.5 µM
same,TGI,MALME-3M melanoma,> 100 µM
same,TGI,MCF7 breast,56.3 µM
same,TGI,MDA-MB-231 breast,> 100 µM
same,TGI,MDA-MB-435,41.9 µM
same,TGI,MDA-N,49.8 µM
same,TGI,NCI-H226 lung,54.7 µM
same,TGI,NCI-H23 lung,83 µM
same,TGI,NCI-H460 lung,76.8 µM
same,TGI,NCI-H522 lung,44.2 µM
same,TGI,NCI/ADR-RES ovarian,> 100 µM
same,TGI,OVCAR-3 ovarian,54 µM
same,TGI,OVCAR-4 ovarian,> 100 µM
same,TGI,OVCAR-5 ovarian,> 100 µM
same,TGI,OVCAR-8 ovarian,> 100 µM
same,TGI,PC-3 prostate,46.5 µM
same,TGI,RPMI-8226 leukemia,48 µM
same,TGI,RXF 393 renal,64.4 µM
same,TGI,SF-295 CNS,> 100 µM
same,TGI,SF-539 CNS,74.4 µM
same,TGI,SK-MEL-2 melanoma,64.9 µM
same,TGI,SK-MEL-28 melanoma,76.6 µM
same,TGI,SK-MEL-5 melanoma,30.9 µM
same,TGI,SK-OV-3 ovarian,65.7 µM
same,TGI,SN12C renal,> 100 µM
same,TGI,SNB-19 CNS,> 100 µM
same,TGI,SNB-75 CNS,58.3 µM
same,TGI,SR leukemia,> 100 µM
same,TGI,T-47D breast,83.3 µM
same,TGI,U251 CNS,> 100 µM
same,TGI,UO-31 renal,37.7 µM
CSc1ccc(NC(=O)C2CCCCC2C(=O)O)cc1 (stereo not given),TGI,786-0 renal,> 100 µM
same,TGI,A498 renal,> 100 µM
same,TGI,A549 NSCLC,> 100 µM
same,TGI,ACHN renal,> 100 µM
same,TGI,BT-549 breast,> 100 µM
same,TGI,CAKI-1 renal,> 100 µM
same,TGI,CCRF-CEM leukemia,> 100 µM
same,TGI,COLO 205 colon,> 100 µM
same,TGI,DU-145 prostate,> 100 µM
same,TGI,EKVX NSCLC,> 100 µM
same,TGI,HCC-2998 colon,> 100 µM
same,TGI,HCT-116 colon,> 100 µM
same,TGI,HCT-15 colon,> 100 µM
same,TGI,HL-60(TB) leukemia,> 100 µM
same,TGI,HOP-62 NSCLC,> 100 µM
same,TGI,HOP-92 NSCLC,> 100 µM
same,TGI,HS 578T breast,> 100 µM
same,TGI,HT29 colon,> 100 µM
same,TGI,IGROV1 ovarian,> 100 µM
same,TGI,K-562 leukemia,> 100 µM
same,TGI,KM12 colon,> 100 µM
same,TGI,LOX IMVI melanoma,> 100 µM
same,TGI,M14 melanoma,> 100 µM
same,TGI,MALME-3M melanoma,> 100 µM
same,TGI,MCF7 breast,> 100 µM
same,TGI,MDA-MB-231 breast,> 100 µM
same,TGI,MDA-MB-435,> 100 µM
same,TGI,MDA-N,> 100 µM
same,TGI,MOLT-4 leukemia,> 100 µM
same,TGI,NCI-H226 lung,> 100 µM
same,TGI,NCI-H23 lung,> 100 µM
same,TGI,NCI-H460 lung,> 100 µM
same,TGI,NCI-H522 lung,> 100 µM
same,TGI,NCI/ADR-RES ovarian,> 100 µM
same,TGI,OVCAR-3 ovarian,> 100 µM
same,TGI,OVCAR-4 ovarian,> 100 µM
same,TGI,OVCAR-5 ovarian,> 100 µM
same,TGI,OVCAR-8 ovarian,> 100 µM
same,TGI,PC-3 prostate,> 100 µM
same,TGI,RPMI-8226 leukemia,> 100 µM
same,TGI,RXF 393 renal,> 100 µM
same,TGI,SF-268 CNS,> 100 µM
same,TGI,SF-295 CNS,> 100 µM
same,TGI,SF-539 CNS,> 100 µM
same,TGI,SK-MEL-2 melanoma,> 100 µM
same,TGI,SK-MEL-28 melanoma,> 100 µM
same,TGI,SK-MEL-5 melanoma,> 100 µM
same,TGI,SK-OV-3 ovarian,> 100 µM
same,TGI,SN12C renal,> 100 µM
same,TGI,SNB-19 CNS,> 100 µM
same,TGI,SNB-75 CNS,> 100 µM
same,TGI,SR leukemia,> 100 µM
same,TGI,SW-620 colon,> 100 µM
same,TGI,T-47D breast,> 100 µM
same,TGI,TK-10 renal,> 100 µM
same,TGI,U251 CNS,> 100 µM
same,TGI,UACC-257 melanoma,> 100 µM
same,TGI,UACC-62 melanoma,> 100 µM
same,TGI,UO-31 renal,> 100 µM
CC(=O)O[C@@H]1C(C2CCCCC2)C=[N+]([O-])O[C@@H]1OC1CCCC1(c1ccccc1)c1ccccc1 (stereo not given in full),TGI,786-0 renal,16.8 µM
same,TGI,A498 renal,17.1 µM
same,TGI,A549 NSCLC,28.5 µM
same,TGI,ACHN renal,4.84 µM
same,TGI,BT-549 breast,24.8 µM
same,TGI,CAKI-1 renal,10.4 µM
same,TGI,CCRF-CEM leukemia,7.49 µM
same,TGI,COLO 205 colon,17.7 µM
same,TGI,DU-145 prostate,25.3 µM
same,TGI,EKVX NSCLC,30.2 µM
same,TGI,HCC-2998 colon,26 µM
same,TGI,HCT-116 colon,15.5 µM
same,TGI,HCT-15 colon,4.21 µM
same,TGI,HL-60(TB) leukemia,3.4 µM
same,TGI,HOP-62 NSCLC,29.3 µM
same,TGI,HOP-92 NSCLC,23.1 µM
same,TGI,HS 578T breast,27.8 µM
same,TGI,HT29 colon,5.65 µM
same,TGI,IGROV1 ovarian,8.83 µM
same,TGI,K-562 leukemia,> 40.2 µM
same,TGI,KM12 colon,22.9 µM
same,TGI,LOX IMVI melanoma,3.48 µM
same,TGI,M14 melanoma,12.1 µM
same,TGI,MALME-3M melanoma,9.05 µM
same,TGI,MCF7 breast,12 µM
same,TGI,MDA-MB-231 breast,27.1 µM
same,TGI,MDA-MB-435,9.04 µM
same,TGI,MDA-N,12.2 µM
same,TGI,MOLT-4 leukemia,> 27.6 µM
same,TGI,NCI-H226 lung,32.1 µM
same,TGI,NCI-H23 lung,26.2 µM
same,TGI,NCI-H460 lung,30 µM
same,TGI,NCI-H522 lung,4.1 µM
same,TGI,NCI/ADR-RES ovarian,29.3 µM
same,TGI,OVCAR-3 ovarian,10.3 µM
same,TGI,OVCAR-4 ovarian,21.1 µM
same,TGI,OVCAR-5 ovarian,30.7 µM
same,TGI,OVCAR-8 ovarian,4.22 µM
same,TGI,PC-3 prostate,23 µM
same,TGI,RPMI-8226 leukemia,7.91 µM
same,TGI,RXF 393 renal,6.82 µM
same,TGI,SF-268 CNS,17.6 µM
same,TGI,SF-295 CNS,27.4 µM
same,TGI,SF-539 CNS,14.2 µM
same,TGI,SK-MEL-2 melanoma,27.8 µM
same,TGI,SK-MEL-28 melanoma,5.84 µM
same,TGI,SK-MEL-5 melanoma,28 µM
same,TGI,SK-OV-3 ovarian,29.1 µM
same,TGI,SN12C renal,21.2 µM
same,TGI,SNB-19 CNS,30.5 µM
same,TGI,SNB-75 CNS,17.6 µM
same,TGI,SR leukemia,> 22.8 µM
same,TGI,SW-620 colon,4.63 µM
same,TGI,T-47D breast,10.1 µM
same,TGI,TK-10 renal,28.3 µM
same,TGI,U251 CNS,26.1 µM
same,TGI,UACC-257 melanoma,36.5 µM
same,TGI,UACC-62 melanoma,19.4 µM
same,TGI,UO-31 renal,20.4 µM
